Experimental data published in patent publication US9925193B2, “Thioether derivatives as protein kinase inhibitors” (KTB TUMORFORSCHUNGSGESELLSCHAFT MBH, priority 2012, dated 2018).

Assays:
[1] = molecular target: T1, ALK (Homo sapiens, UniProt Q9UM73); experiment: 33PanQinase Activity Assay, ALK; type: biochemical; details: recombinant human protein kinase, 1 μM [γ-33P]-ATP, 30° C. 80 minutes
T1 construct: made in house; host or cells: Sf9 insect cells (baculovirus)
Protocol: (§1) The effect of the thioether derivatives 8a-v and 9a-i was tested on recombinant, human protein kinases. All protein kinases were expressed in Sf9 insect cells as human recombinant GST-fusion proteins or as His-tagged proteins by means of the baculovirus expression system. Protein kinases were purified by affinity chromatography using either GSH-agarose or Ni-NTH-agarose. The purity and identity of each was checked by SDS-PAGE/silver staining and by western blot analysis with specific antibodies.
(§2) A proprietary protein kinase assay (^33PanQinase® Activity Assay) was used for measuring the kinase activity. All kinase assays were performed in 96-well FlashPlates™ in a 50 μl reaction volume. The assay for all enzymes contained 60 mM HEPES-NaOH, pH 7.5, 3 mM MgCl2, 3 mM MnCl2, 3 μM Na-orthovanadate, 1.2 mM DTT, 50 μg/ml PEG20000 and 1 μM [γ-^33P]-ATP (approx. 5×10^5 cpm per well).
(§3) The reaction cocktails were incubated at 30° C. for 80 minutes. The reaction was stopped with 50 μl of 2% (v/v) H3PO4, plates were aspirated and washed two times with 200 μl of 0.9% (w/v) NaCl. Incorporation of ^33Pi was determined with a microplate scintillation counter. All assays were performed with a BeckmanCoulter/Sagian robotic system.

[2] = molecular target: T2, AXL (Homo sapiens, UniProt P30530); experiment: 33PanQinase Activity Assay, AXL; type: biochemical; details: recombinant human protein kinase, 1 μM [γ-33P]-ATP, 30° C. 80 minutes
T2 construct: made in house; host or cells: Sf9 insect cells (baculovirus)
T2 sequence (P30530 26-894): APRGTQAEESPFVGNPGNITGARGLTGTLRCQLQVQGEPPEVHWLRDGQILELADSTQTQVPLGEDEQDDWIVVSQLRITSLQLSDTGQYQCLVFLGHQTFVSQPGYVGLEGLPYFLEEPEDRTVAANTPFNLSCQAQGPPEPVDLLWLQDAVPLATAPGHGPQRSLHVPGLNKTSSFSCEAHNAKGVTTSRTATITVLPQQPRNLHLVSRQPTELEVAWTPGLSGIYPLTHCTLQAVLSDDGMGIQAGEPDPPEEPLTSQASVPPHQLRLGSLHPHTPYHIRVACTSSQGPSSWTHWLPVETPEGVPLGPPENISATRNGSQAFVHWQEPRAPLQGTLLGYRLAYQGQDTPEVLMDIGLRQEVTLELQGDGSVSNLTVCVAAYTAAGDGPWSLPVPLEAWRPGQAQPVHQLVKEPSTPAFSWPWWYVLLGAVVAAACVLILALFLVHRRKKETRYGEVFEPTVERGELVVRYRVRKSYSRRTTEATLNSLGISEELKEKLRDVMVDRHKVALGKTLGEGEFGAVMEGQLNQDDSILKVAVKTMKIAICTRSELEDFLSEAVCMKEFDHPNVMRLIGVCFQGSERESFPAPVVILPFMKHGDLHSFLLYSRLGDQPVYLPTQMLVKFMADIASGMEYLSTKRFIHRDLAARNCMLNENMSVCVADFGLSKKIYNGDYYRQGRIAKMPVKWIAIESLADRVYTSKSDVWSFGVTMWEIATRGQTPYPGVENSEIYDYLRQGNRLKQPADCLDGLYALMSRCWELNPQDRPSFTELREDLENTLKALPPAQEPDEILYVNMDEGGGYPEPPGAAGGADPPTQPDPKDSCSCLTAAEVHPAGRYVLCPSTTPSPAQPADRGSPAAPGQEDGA
Protocol: as §1, §2, §3

[3] = molecular target: T3, KIT wt (Homo sapiens, UniProt P10721); experiment: 33PanQinase Activity Assay, KIT wt; type: biochemical; details: recombinant human protein kinase, 1 μM [γ-33P]-ATP, 30° C. 80 minutes
T3 construct: made in house; host or cells: Sf9 insect cells (baculovirus)
T3 sequence (P10721 26-976): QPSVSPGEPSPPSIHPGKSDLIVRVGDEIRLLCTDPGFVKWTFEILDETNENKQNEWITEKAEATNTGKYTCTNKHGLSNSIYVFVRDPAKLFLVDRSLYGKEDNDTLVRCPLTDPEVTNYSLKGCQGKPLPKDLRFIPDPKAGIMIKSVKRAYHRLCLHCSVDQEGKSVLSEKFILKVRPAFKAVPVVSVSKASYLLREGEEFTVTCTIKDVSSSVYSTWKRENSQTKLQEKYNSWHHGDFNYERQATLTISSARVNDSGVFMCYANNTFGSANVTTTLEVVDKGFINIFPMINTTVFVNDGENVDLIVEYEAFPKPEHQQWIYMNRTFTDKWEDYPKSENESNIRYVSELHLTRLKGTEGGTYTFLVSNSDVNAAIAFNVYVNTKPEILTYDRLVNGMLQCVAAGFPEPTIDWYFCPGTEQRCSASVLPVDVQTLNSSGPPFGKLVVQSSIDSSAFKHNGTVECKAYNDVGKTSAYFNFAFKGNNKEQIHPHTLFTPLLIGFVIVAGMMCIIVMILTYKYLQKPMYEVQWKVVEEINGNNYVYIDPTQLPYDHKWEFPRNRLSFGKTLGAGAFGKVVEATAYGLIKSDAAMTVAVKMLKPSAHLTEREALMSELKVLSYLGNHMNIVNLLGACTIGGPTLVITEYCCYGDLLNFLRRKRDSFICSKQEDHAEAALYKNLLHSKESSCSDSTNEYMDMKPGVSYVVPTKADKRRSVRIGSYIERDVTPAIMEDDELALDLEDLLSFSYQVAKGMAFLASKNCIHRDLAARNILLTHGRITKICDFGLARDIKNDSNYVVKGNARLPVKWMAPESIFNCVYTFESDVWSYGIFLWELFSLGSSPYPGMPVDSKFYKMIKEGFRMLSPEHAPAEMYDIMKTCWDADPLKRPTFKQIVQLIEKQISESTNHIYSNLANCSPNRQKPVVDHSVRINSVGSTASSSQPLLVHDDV
Protocol: as §1, §2, §3

[4] = molecular target: T4, FAK (Homo sapiens, UniProt Q05397); experiment: 33PanQinase Activity Assay, FAK; type: biochemical; details: recombinant human protein kinase, 1 μM [γ-33P]-ATP, 30° C. 80 minutes
T4 construct: made in house; host or cells: Sf9 insect cells (baculovirus)
T4 sequence (Q05397 whole entry): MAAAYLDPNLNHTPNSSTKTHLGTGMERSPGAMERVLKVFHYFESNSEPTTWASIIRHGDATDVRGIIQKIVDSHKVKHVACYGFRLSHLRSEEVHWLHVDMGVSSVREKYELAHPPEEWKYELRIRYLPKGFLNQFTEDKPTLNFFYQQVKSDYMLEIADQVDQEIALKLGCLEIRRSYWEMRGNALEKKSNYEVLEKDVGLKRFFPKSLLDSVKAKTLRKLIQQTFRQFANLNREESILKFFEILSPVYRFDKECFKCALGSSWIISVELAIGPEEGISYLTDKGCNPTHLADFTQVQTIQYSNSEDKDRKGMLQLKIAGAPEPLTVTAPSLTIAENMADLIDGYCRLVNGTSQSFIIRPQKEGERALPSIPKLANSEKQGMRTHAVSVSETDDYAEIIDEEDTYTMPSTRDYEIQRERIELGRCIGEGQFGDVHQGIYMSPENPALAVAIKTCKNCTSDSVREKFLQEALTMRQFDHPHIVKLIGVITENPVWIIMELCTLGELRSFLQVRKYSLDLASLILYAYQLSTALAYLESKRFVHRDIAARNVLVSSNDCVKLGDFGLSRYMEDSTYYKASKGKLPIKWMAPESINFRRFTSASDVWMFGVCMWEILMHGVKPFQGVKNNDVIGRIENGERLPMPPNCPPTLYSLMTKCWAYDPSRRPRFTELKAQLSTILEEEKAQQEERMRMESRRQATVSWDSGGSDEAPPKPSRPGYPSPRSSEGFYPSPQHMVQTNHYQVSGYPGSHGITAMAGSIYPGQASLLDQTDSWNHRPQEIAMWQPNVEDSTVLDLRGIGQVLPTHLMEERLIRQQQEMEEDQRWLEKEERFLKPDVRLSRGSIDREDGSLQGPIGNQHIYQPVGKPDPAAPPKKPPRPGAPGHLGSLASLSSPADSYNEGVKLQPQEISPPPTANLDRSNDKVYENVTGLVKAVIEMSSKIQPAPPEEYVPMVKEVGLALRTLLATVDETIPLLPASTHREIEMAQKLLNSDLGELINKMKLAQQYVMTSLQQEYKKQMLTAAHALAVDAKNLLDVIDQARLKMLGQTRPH
Protocol: as §1, §2, §3

[5] = molecular target: T5, IGF1-R (Homo sapiens, UniProt P08069); experiment: 33PanQinase Activity Assay, IGF1-R; type: biochemical; details: recombinant human protein kinase, 1 μM [γ-33P]-ATP, 30° C. 80 minutes
T5 construct: made in house; host or cells: Sf9 insect cells (baculovirus)
Protocol: as §1, §2, §3

[6] = molecular target: T6, PIM1 (Homo sapiens, UniProt P11309); experiment: 33PanQinase Activity Assay, PIM1; type: biochemical; details: recombinant human protein kinase, 1 μM [γ-33P]-ATP, 30° C. 80 minutes
T6 construct: made in house; host or cells: Sf9 insect cells (baculovirus)
T6 sequence (P11309 whole entry): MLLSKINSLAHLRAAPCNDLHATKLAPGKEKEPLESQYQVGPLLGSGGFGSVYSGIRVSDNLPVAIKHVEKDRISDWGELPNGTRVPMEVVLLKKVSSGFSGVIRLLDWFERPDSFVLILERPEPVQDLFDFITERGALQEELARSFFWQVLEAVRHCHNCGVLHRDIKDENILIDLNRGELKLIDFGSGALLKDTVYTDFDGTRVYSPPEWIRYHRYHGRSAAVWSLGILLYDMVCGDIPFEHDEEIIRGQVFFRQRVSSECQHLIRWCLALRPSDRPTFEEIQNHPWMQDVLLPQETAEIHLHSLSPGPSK
Protocol: as §1, §2, §3

[7] = molecular target: T7, SRC (Homo sapiens, UniProt P12931); experiment: 33PanQinase Activity Assay, SRC; type: biochemical; details: recombinant human protein kinase, 1 μM [γ-33P]-ATP, 30° C. 80 minutes
T7 construct: made in house; host or cells: Sf9 insect cells (baculovirus)
T7 sequence (P12931 whole entry): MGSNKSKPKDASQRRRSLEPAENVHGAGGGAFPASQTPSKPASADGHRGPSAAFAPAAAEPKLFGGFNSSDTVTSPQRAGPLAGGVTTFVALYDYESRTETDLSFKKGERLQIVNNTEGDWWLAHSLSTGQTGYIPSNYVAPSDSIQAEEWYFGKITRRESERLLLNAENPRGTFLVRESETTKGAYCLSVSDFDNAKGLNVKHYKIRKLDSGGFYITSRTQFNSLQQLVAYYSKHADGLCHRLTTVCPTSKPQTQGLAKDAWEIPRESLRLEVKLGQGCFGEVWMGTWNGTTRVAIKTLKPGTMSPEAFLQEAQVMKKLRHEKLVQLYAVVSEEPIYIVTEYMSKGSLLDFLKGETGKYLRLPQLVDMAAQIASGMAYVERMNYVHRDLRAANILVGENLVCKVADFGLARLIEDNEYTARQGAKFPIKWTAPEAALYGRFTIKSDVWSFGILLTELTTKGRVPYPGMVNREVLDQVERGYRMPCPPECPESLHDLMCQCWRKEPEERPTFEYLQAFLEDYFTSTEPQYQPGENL
Protocol: as §1, §2, §3

[8] = molecular target: T8, VEGF-R2 (Homo sapiens, UniProt P35968); experiment: 33PanQinase Activity Assay, VEGF-R2; type: biochemical; details: recombinant human protein kinase, 1 μM [γ-33P]-ATP, 30° C. 80 minutes
T8 construct: made in house; host or cells: Sf9 insect cells (baculovirus)
Protocol: as §1, §2, §3

T1 sequence (Q9UM73 19-1620): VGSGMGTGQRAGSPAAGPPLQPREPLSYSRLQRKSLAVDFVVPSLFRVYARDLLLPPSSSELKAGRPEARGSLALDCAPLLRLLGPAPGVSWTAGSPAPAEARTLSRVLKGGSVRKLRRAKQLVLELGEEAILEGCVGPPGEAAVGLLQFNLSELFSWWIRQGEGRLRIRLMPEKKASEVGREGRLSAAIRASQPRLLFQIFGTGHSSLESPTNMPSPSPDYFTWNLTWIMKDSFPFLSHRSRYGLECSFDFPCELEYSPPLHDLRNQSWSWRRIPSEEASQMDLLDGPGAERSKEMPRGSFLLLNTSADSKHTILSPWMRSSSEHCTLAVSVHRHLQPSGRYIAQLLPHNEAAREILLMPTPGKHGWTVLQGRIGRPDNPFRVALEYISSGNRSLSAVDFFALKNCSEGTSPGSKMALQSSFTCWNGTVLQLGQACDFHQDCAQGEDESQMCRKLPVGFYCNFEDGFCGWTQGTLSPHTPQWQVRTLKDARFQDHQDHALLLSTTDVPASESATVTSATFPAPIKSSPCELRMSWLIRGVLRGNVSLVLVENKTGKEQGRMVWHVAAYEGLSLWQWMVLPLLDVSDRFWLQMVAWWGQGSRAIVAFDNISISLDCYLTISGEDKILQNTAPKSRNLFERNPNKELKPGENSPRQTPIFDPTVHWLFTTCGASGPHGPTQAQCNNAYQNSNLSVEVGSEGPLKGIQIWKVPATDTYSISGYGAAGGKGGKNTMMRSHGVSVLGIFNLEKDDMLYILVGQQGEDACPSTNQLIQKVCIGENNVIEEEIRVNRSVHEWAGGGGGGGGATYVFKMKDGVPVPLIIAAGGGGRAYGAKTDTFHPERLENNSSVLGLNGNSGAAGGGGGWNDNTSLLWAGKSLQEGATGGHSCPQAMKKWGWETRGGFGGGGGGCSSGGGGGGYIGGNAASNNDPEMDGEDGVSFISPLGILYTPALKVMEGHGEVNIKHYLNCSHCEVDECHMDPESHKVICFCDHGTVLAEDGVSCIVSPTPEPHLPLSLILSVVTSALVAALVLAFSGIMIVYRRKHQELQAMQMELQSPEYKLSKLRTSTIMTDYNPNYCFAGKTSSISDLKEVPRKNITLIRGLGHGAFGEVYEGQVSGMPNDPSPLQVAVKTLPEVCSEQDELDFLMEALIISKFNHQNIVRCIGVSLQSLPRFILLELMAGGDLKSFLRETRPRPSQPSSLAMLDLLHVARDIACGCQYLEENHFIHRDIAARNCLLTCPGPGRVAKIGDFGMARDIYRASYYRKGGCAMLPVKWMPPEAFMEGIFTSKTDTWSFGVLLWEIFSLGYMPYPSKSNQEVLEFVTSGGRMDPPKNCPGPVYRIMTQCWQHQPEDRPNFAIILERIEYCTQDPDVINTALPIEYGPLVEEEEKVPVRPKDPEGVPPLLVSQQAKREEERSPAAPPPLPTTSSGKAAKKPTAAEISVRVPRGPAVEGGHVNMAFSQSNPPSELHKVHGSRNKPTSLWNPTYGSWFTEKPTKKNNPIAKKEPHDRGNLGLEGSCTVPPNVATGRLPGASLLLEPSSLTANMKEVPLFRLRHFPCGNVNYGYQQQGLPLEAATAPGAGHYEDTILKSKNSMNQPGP

IC50 [1] | IC50 [2] | IC50 [3] | melting point | IC50 [4] | IC50 [5] | IC50 [6] | IC50 [7] | IC50 [8] | Compound
0.987 µM | 3.16 µM | 1.04 µM | 223 °C |  |  |  |  |  | Fc1ccc(-c2cc3ncnc(Sc4nnc(-c5ccccc5)o4)c3s2)cc1 [Compound 8a, 2-{[6-(4-Fluorophenyl)thieno[3,2-d]pyrimidin-4-yl]thio}-5-phenyl-1,3,4-oxadiazole]
2.94 µM | 2.64 µM | 1.74 µM | 232 °C |  |  |  |  |  | Fc1ccc(-c2cc3ncnc(Sc4nnc(-c5ccncc5)o4)c3s2)cc1 [Compound 8b, 2-{[6-(4-Fluorophenyl)thieno[3,2-d]pyrimidin-4-yl]thio}-5-(pyridin-4-yl)-1,3,4-oxadiazole]
6.54 µM | 12.3 µM | 2.76 µM | 170 to 172 °C |  |  |  |  |  | CN(C)Cc1nnc(Sc2ncnc3cc(-c4ccc(F)cc4)sc23)o1 [Compound 8c, 1-{5-[(6-{4-Fluorophenyl}thieno[3,2-d]pyrimidin-4-yl)thio]-1,3,4-oxadiazol-2-yl}-N,N-dimethylmethanamine]
5.59 µM | 7.66 µM | 3.85 µM |  |  |  |  |  |  | Fc1ccc(-c2cc3ncnc(Sc4nnc(CN5CCOCC5)o4)c3s2)cc1 [Compound 8d, 4-{[5-({6-[4-Fluorophenyl]thieno[3,2-d]pyrimidin-4-yl}thio)-1,3,4-oxadiazol-2-yl]methyl}morpholine]
2.37 µM | 6.19 µM |  | 197 to 199 °C | 4.82 µM | 3.28 µM | 22.9 µM | 2.51 µM | 4.07 µM | CC(C)(C)c1nnc(Sc2ncnc3cc(-c4ccc(F)cc4)sc23)o1 [Compound 8g, 2-(tert-Butyl)-5-{[6-(4-fluorophenyl)thieno[3,2-d]pyrimidin-4-yl]thio}-1,3,4-oxadiazole]
2.95 µM | 4.58 µM |  | 180 to 182 °C | 5.76 µM | 7.65 µM | 26.3 µM | 2.62 µM | 2.05 µM | O=S1(=O)CCC(Cc2nnc(Sc3ncnc4cc(-c5ccc(F)cc5)sc34)o2)C1 (stereo not shown) [Compound 8k, 3-{[5-({6-[4-Fluorophenyl]thieno[3,2-d]pyrimidin-4-yl}thio)-1,3,4-oxadiazol-2-yl]methyl}-tetrahydrothiophene-1,1-dioxide]
0.97 µM | 0.94 µM |  | 213 to 215 °C | 0.83 µM |  |  | 0.032 µM |  | COc1ccc(-c2cc3ncnc(Sc4nnc(-c5ccccc5)o4)c3s2)cc1 [Compound 8m, 2-{[6-(4-Methoxyphenyl)thieno[3,2-d]pyrimidin-4-yl]thio}-5-phenyl-1,3,4-oxadiazole]
1 µM | 2.7 µM |  | 221 to 223 °C | 1.4 µM |  |  | 0.55 µM |  | COc1ccc(-c2cc3ncnc(Sc4nnc(-c5ccc(Cl)cc5)o4)c3s2)cc1 [Compound 8n, 2-(4-Chlorophenyl)-5-{[6-(4-methoxyphenyl)thieno[3,2-d]pyrimidin-4-yl]thio}-1,3,4-oxadiazole]
0.88 µM | 2.4 µM |  | 227 to 228 °C | 1.7 µM |  |  | 0.84 µM |  | COc1ccc(-c2cc3ncnc(Sc4nnc(-c5ccc(C(F)(F)F)cc5)o4)c3s2)cc1 [Compound 8o, 2-{[6-(4-Methoxyphenyl)thieno[3,2-d]pyrimidin-4-yl]thio}-5-[4-(trifluoro-methyl)phenyl]-1,3,4-oxadiazole]
0.92 µM | 1.9 µM |  | 184 to 186 °C | 1.3 µM |  |  | 0.68 µM |  | COc1ccc(-c2cc3ncnc(Sc4nnc(-c5ccccc5C)o4)c3s2)cc1 [Compound 8p, 2-{[6-(4-methoxyphenyl)thieno[3,2-d]pyrimidin-4-yl]thio}-5-(o-tolyl)-1,3,4-oxadiazole]
1.3 µM | 2.2 µM |  | 213 to 215 °C | 1.5 µM |  |  | 0.8 µM |  | COc1ccc(-c2cc3ncnc(Sc4nnc(-c5ccc(Cl)cc5Cl)o4)c3s2)cc1 [Compound 8q, 2-(2,4-Dichlorophenyl)-5-{[6-(4-methoxyphenyl)thieno[3,2-d]pyrimidin-4-yl]thio}-1,3,4-oxadiazole]
0.73 µM | 1.2 µM |  | 206 to 208 °C | 0.9 µM |  |  | 0.65 µM |  | COc1ccc(-c2cc3nc(N)nc(Sc4nnc(-c5ccc(Cl)cc5)o4)c3s2)cc1 [Compound 8r, 4-{[5-(4-Chlorophenyl)-1,3,4-oxadiazol-2-yl]thio}-6-(4-methoxyphenyl)thieno[3,2-d]pyrimidin-2-amine]
27 µM | 24 µM |  | 250 to 251 °C | 26 µM |  |  | 19 µM |  | c1ccc(-c2nc3c(Sc4nnc(-c5ccncc5)o4)ncnc3[nH]2)cc1 [Compound 8s, 2-[(8-Phenyl-9H-purin-6-yl)thio]-5-(pyridin-4-yl)-1,3,4-oxadiazole]
76 µM | > 100 µM |  | 198 to 199 °C | 43 µM |  |  | 32 µM |  | c1ccc(Cc2nnc(Sc3ncnc4[nH]c(-c5ccccc5)nc34)o2)cc1 [Compound 8t, 2-Benzyl-5-[(8-phenyl-9H-purin-6-yl)thio]-1,3,4-oxadiazole]
22 µM | 40 µM |  | 224 to 225 °C | 23 µM |  |  | 11 µM |  | c1ccc(-c2nc3c(Sc4nnc(-c5ccco5)o4)ncnc3[nH]2)cc1 [Compound 8u, 2-(Furan-2-yl)-5-[(8-phenyl-9H-purin-6-yl)thio]-1,3,4-oxadiazole]
2.16 µM | 1.63 µM | 0.608 µM |  | 8.93 µM |  |  |  |  | O=C1CCCCCN1Cc1nnc(Sc2ncnc3cc(-c4ccc(Cl)cc4)sc23)o1 [Compound 9a]
3.03 µM | 6.09 µM | 6.48 µM |  | 15 µM |  |  |  |  | Fc1ccc(-c2cc3ncnc(Sc4nnc(CN5CCCC5)o4)c3s2)cc1 [Compound 9b]
0.935 µM | 6.56 µM | 4.92 µM |  | 3.52 µM |  |  |  |  | Fc1ccc(-c2cc3ncnc(Sc4nnc(-c5ccc6c(c5)OCO6)o4)c3s2)cc1 [Compound 9c]
13.6 µM | 28.9 µM | 2.41 µM |  | 13.6 µM |  |  |  |  | Cn1nnnc1Sc1ncnc2cc(-c3ccc(F)cc3)sc12 [Compound 9d]
2.76 µM | 9.76 µM | 1.3 µM |  | 7.89 µM |  |  |  |  | COc1ccc(-c2cc3ncnc(Sc4nnnn4C4CC4)c3s2)cc1 [Compound 9e]
3.51 µM | 5.2 µM | 0.804 µM |  | 16.7 µM |  |  |  |  | COCCNc1nnc(Sc2ncnc3cc(-c4ccc(OC)cc4)sc23)s1 [Compound 9f]
2.37 µM | 5.8 µM | 1.02 µM |  | 5.99 µM |  |  |  |  | COc1ccc(-c2cc3ncnc(Sc4nnnn4C)c3s2)cc1 [Compound 9g]
2.72 µM | 10.1 µM | 0.873 µM |  | 10.5 µM |  |  |  |  | COc1ccc(-c2cc3ncnc(Sc4n[nH]/c(=N\C5CC5)s4)c3s2)cc1 [Compound 9h]
15 µM | 41.7 µM | 1.25 µM |  | > 100 µM |  |  |  |  | Cc1nnc(Sc2ncnc3cc(-c4ccc(Cl)cc4)sc23)s1 [Compound 9i]
